{"source": "patent US20220265759A1", "about": "“COMPOSITION AND METHOD FOR PROMOTING WOUND HEALING” (THE BOARD OF TRUSTEES OF THE UNIVERSITY OF ILLIOIS, priority 2019, published 2022)", "key": {"cell viability": {"test_system": "cell viability", "assay": "Cell viability", "type": "cell-based"}, "CCR10-eNOS interaction [1]": {"biological_target": "T1, CCR10-eNOS interaction (Mus musculus, UniProt Q9JL21)", "T1 construct": "cells or mouse wounds were collected after treatment, and lysed in 2% ODG in Tris buffer; tissue Jackson Laboratory; host or cells: dorsal skin wounds of WT C57BL/6 or db/db mice", "T1 sequence (Q9JL21 1-362)": "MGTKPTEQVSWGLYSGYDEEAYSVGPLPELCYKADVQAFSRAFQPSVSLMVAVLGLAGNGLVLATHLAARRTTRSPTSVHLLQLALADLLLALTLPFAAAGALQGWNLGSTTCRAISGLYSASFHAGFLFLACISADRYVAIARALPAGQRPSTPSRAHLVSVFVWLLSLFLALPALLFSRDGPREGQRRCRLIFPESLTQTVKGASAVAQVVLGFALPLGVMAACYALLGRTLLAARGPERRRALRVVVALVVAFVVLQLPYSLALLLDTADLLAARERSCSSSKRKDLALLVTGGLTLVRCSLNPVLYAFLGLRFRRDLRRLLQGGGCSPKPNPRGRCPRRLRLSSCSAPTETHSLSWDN", "assay": "Co-IP of CCR10-eNOS interaction in WT mouse wounds", "type": "in vivo, WT C57BL/6 mice", "conditions": "day 7, 50 μM", "text": "(§1) Co-IP Experiments, cells or mouse wounds were collected after treatment, and lysed in 2% ODG in Tris buffer. The homogenates were further prepared for Co-IP experiments as described in the art (Chen, et al. (2018) Mol. Biol. Cell 29(10):1190-1202; Chen, et al. (2020) FASEB J. 34(4):5838-5850; Chen, et al. (2015) Ann. Rheum. Dis. 74:1898-1906)."}, "[2]": {"test_system": "full thickness excisional wounds on mouse dorsal skin", "assay": "Excisional dermal wound healing in WT C57BL/6 mice", "type": "in vivo", "conditions": "for reduction of wound size: compared to control peptide", "description": "Mouse Healing Models. All animal procedures were performed in accordance with the Guide for the Care and Use of Laboratory Animals (National Institutes of Health). WT C57BL/6, eNOS^−/− and db/db mice were purchased from Jackson Laboratory (Bar Harbor, Me.). CCR10^−/− mice have been described in the art, see, e.g., Jin, et al. (2011) J. Immunol. 185(10):5723-31. Four 5-mm or two 8-mm full thickness excisional wounds were made on the dorsal skin of mice (male, aged at 9 weeks) using a standard skin biopsy punch under ketamine (100 mg/kg) and xylazine (5 mg/kg) anesthesia. Scrambled myristoylated (Myr−) control or Myr-CBD7 peptides were applied topically to wounds in F-127 gel sold under the tradename PLURONIC® after wounding (Mirza, et al. (2009) Am. J. Pathol. 175:2454-2462). Wound size was determined as previously described (Chen, et al. (2020) FASEB J. 34(4):5838-5850; Zhao, et al. (2016) PLoS ONE. 11:e0146451) and wounds were collected at indicated times for indicated measurements.\nHematoxylin and Eosin (H&E) Staining. H&E staining was performed as described previously (Chignalia, et al. (2015) Am. J. Pathol. 185:1251-1263). Slides with 5 μm tissue sections were baked at 60° C. for 30 minutes and stained with an Autostainer XL (Leica Microsystems, Wetzlar, Germany) using preset protocol. Briefly, slides were deparaffinized in three changes of xylene, rehydrated in 100% and 95% ethanol, […] followed by a brief immersion in High-Def and Bluing to obtain crisp nuclear details. Slides were then incubated in eosin for 2 minutes, dehydrated and mounted with Micromount media (Leica Biosystems). Whole slide images were obtained using Aperio AT2 brightfield scanner (Leica Microsystems, Wetzlar, Germany).\nCCL28 (also called mucosa-associated epithelial chemokine) is a CC chemokine that signals via CCR10 as well as CCR3 (Pan, et al. (2000) J. Immunol. 165:2943). CCR10 has been reported to have two functional ligands, CCL27 and CCL28 that are involved in the epithelial immunity (Xiang, et al. (2012) Protein Cell 3:571-580). It was observed that CCL28 and CCR10 levels were highly expressed compared to CCL27 and CCR3 in skin of WT C57BL/6 mice. […] Therefore, it was subsequently investigated whether blockade of CCR10-eNOS interaction with Myr-CBD7 peptide has an effect on wound healing in WT C57BL/6 mice. Four 5 mm diameter full thickness excisional wounds were made on the mouse dorsal skin and 30 μl Myr-CBD7 peptide (50 μM) was topically administrated onto the wounds immediately after creating the punch wound."}, "CCR10-eNOS interaction [3]": {"biological_target": "T2, CCR10-eNOS interaction (Homo sapiens, UniProt P46092)", "T2 construct": "host or cells: HUVEC (primary human umbilical vein endothelial cells)", "T2 sequence (P46092 1-362)": "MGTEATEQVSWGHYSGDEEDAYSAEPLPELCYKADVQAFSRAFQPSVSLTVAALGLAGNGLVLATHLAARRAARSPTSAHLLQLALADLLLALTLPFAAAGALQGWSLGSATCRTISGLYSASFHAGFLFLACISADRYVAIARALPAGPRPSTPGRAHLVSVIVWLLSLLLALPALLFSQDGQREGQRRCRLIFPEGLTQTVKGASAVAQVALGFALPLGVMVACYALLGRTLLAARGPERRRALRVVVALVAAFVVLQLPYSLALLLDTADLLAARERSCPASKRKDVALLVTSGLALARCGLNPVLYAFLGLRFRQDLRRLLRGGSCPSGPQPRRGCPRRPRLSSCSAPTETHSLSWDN", "assay": "Co-IP of CCR10-eNOS interaction in HUVECs stimulated with A23187", "type": "cell-based", "conditions": "endothelial cells (HUVECs), pretreatment 50 μM, 5 μM A23187 for 5 minutes, vs control peptide", "description": "Immunoblot and Co-Immunoprecipitation (Co-IP). After serum starvation, inhibitors were added 45 minutes prior to stimulation for indicated times at 37° C., and cells were then collected and lysed for western blot analysis. After probing for p-eNOS (Ser1177), p-p85 (Tyr458), p-Src (Tyr 416), and p-ERK (T202/Y204), the same blots were stripped and re-probed for total proteins mentioned above. For detection of CCL28-induced protein levels of β-catenin and Bcl-2, near-confluent endothelial cells were incubated with 500 ng/ml CCL28 for 24 hours in EGM-2 medium containing 1% FBS.\nas §1\nTherefore, the effect of inhibition of CCR10-eNOS interaction was investigated using a panel of cell-permeable peptides based on the sequence of the predicted interaction domain on eNOS. Similar peptides have been described in determining the solution structure of calmodulin bound to the target peptide of eNOS (Piazza, et al. (2014) Biochemistry 53(8):1241-9; Piazza, et al. (2016) Biochemistry 55(42):5962-71). First, myristoylated 20 amino acid peptide (491-[…]-510 (P1); SEQ ID NO:61) was synthesized based on the sequence of human eNOS (which is conserved in mouse eNOS). […] It was subsequently determined whether truncated versions of the CBD-derived peptide would have the same effect."}}, "note": "Peptide text beside a SMILES is read from it. * marks the point of attachment. Myristoyl = CCCCCCCCCCCCCC(=O)*"}
{"smiles": "CCCCCCCCCCCCCC(=O)N[C@@H](CCCCN)C(=O)N[C@H](C(=O)N[C@@H](CO)C(=O)N[C@@H](C)C(=O)N[C@@H](CO)C(=O)N[C@@H](CC(C)C)C(=O)N[C@@H](CCSC)C(=O)O)[C@@H](C)CC", "note": "[Myr-CBD7, myr-KISASLM] (Myristoyl-KISASLM-OH)", "values": [{"measurement": "concentration without adversely affecting cell viability", "setting": "cell viability", "value": "up to 100 μM"}, {"measurement": "CCR10-eNOS interaction in wounds (Co-IP)", "setting": "CCR10-eNOS interaction [1]", "value": "reduced"}, {"measurement": "reduction of wound size", "setting": "[2]; day 5, 30 μl of 50 μM topical", "value": 20, "unit": "%"}, {"measurement": "wound size (FIG. 1)", "setting": "[2]; day 5 and 7, 30 μl (50 μM) per wound, vs Myr-control construct, P<0.05", "value": "reduced wound size significantly"}, {"measurement": "reduction of wound size", "setting": "[2]; day 7, 30 μl of 50 μM topical", "value": 35, "unit": "%"}, {"measurement": "re-epithelization of the skin wound (H&E stained sections)", "setting": "[2]; day 7, vs control construct", "value": "associated with re-epithelization of the skin wound"}, {"measurement": "wound healing time", "setting": "[2]; topical administration on dermal wounds", "value": "decreased"}, {"measurement": "CCR10-eNOS interaction (Co-IP)", "setting": "CCR10-eNOS interaction [3]", "value": "significant reduction"}, {"measurement": "CCR10-eNOS interaction (Co-IP)", "setting": "CCR10-eNOS interaction [3]; listed as P4", "value": "completely blocked"}]}
